Test results as given in US11919854B2, “P2RX7 modulators in therapy” (Centre national de la recherche scientifique, priority 2018, dated 2024).
Entries after “also recorded” stand apart in the source; their conditions may differ.

Columns and labels:
mouse P2RX7 (mP2RX7) = biological target: T1, mouse P2RX7 (mP2RX7) (Mus musculus, UniProt Q9Z1M0); experiment: Channel activity (Fluo4-AM) and large pore opening (Topro3) by flow cytometry, HEK cells expressing mP2RX7, 1 h BzATP; type: cell-based
T1 construct: expressed in transfected cells; host or cells: HEK cells
T1 sequence (Q9Z1M0 1-595): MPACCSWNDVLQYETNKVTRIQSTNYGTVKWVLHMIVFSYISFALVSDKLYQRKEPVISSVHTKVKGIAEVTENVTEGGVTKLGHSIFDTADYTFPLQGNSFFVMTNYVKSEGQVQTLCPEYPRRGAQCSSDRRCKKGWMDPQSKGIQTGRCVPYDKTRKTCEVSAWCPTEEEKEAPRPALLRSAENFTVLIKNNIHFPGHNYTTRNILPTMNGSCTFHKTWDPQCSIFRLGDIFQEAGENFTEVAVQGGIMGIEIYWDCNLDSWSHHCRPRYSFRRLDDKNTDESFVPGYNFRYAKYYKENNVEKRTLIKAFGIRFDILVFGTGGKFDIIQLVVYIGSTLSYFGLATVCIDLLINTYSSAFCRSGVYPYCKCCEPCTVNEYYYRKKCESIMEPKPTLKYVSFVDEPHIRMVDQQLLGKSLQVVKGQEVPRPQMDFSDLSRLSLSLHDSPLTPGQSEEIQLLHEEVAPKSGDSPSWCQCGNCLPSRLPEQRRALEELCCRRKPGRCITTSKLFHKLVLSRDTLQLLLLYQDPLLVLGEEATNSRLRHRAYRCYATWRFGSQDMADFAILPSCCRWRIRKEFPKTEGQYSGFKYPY
Method: Calcium channel activity (Fluo4AM probe) and large pore opening (Topro3 probe) were analysed by FACS on mP2RX7 HEK cells. Cells were non stimulated (NS) or treated with BzATP (500 μM) alone or in the presence of HEI2314, HEI2328, HEI2333 or HEI2336 (used at 50 μM).
Calcium channel activity (Fluo4AM probe) and large pore opening (Topro3 probe) were analysed by FACS on mock and mP2RX7 HEK cells. Cells were non stimulated (NS) or treated with BzATP (500 μM) alone or in the presence of HEI2328 used at 50 μM.
2.1. […] Cation channel activity is assayed with the Fluo4 AM (Invitrogen) probe and opening of large pore with Topro3 (Invitrogen). In each experiment 2×10^6 cells were incubated with 50 nM Fluo4-AM for 30 minutes. After washing, cells were treated with 500 μM BzATP (3′-O-(4-benzoyl)benzoyl ATP) for 1 h, or non-treated, in presence of the compounds of the invention at 50 μM. When indicated, the Topro3 probe (8.5 nM) was added during the 1 h stimulation time. Fluorescence was assayed by flow cytometry.

mouse P2RX7 = biological target: T2, mouse P2RX7 (Mus musculus, UniProt Q9Z1M0); experiment: Calcium influx and large cation permeation by FACS, 15 min, HEK cells with mouse P2RX7, increasing doses of BzATP; type: cell-based; conditions: 15 min stimulation
T2 construct: expressed in transfected cells; host or cells: HEK cells
T2 sequence (Q9Z1M0 1-595): T1 sequence (Q9Z1M0 1-595)
Method: Calcium influx (Fluo-AM positive cells) and large cation permeation (Topro3 positive cells) were assayed by FACS 15 min after stimulation of HEK cells transfected with the mouse P2RX7 treated with increasing doses of BzATP.
Complementary analyses were also performed to document the biological activity of HEI3090, the more soluble version of HEI2328, on both HEK cells expressing mouse P2RX7 (mP2RX7) (FIG. 14) or human P2RX7 (hP2RX7) (FIG. 15). BzATP or ATP stimulate channel activity, an event that occurred in the first minutes of P2RX7 stimulation. […] The same positive effect was observed on cells expressing human P2RX7 (FIG. 15).

LLC = LLC tumor growth, HEI3090 combined with anti-PD-1 checkpoint inhibitor; type: in vivo, C57BL6J mice
Method: b-g Effect of HEI3090 and anti PD-1 checkpoint inhibitor on LLC tumor growth. 5.105 LLC were injected s.c. into the flank of C57BL6J mice. Mice were treated i.p. with vehicle (PBS, 10% DMSO) or with HEI3090 (1.5 mg/kg in PBS, 10% DMSO) from day 1 to day 18. Each mouse received 200 μg of anti PD-1 i.p. at day 4.7.10.13 and 16. Tumor sizes were measured from day 1 to day 90. Mice were sacrificed when tumor reached 100 mm2. For contralateral re-challenge, cured mice or naive age matched C57BL6J mice were injected s.c. in the opposite flank with 2.105 LLC. At day 150, re-challenged treated mice or C57BL/6J naive mice were sacrificed to sort CD8+ T cells. 2.105 CD8+ T cells were adoptively transferred in other C57BL6J naive mice. Then mice were injected s.c with 2.105 LLC (b). Spaghetti plots of LLC tumor growth of vehicle and anti-PD-1 treated mice or HEI3090 and anti-PD-1 treated mice (c). Each curve represents one mouse. Survival curves of mice treated with vehicle or HEI3090 and isotype control or vehicle or HEI3090 and anti-PD-1 (d). Tumor growth and survival curves after re-challenge of cured mice treated with HEI3090 and anti-PD-1 or age matched C57BL/6J mice (e,f). Tumor growth after i.v. injection of CD8+ T cells from naïve mice or re-challenged treated mice (g).

SMILES	Topro3 positive cells (mouse P2RX7 (mP2RX7); HEI2328 50 μM combined with BzATP 500 μM, 1 h, mP2RX7 cells) [%]	channel activity (Fluo4-AM) (mouse P2RX7 (mP2RX7); combined with BzATP 500 μM, 1 h stimulation)	Topro3 entry (large pore opening) (mouse P2RX7 (mP2RX7); compound 50 μM, BzATP 500 μM, 1 h, mP2RX7 HEK cells)	channel activity and large pore opening, compound alone (mouse P2RX7 (mP2RX7); used alone (no BzATP) on Mock and mP2RX7 cells, 50 μM)	decrease of the EC50 (BzATP) in the presence of HEI3090 (mouse P2RX7; increasing doses of BzATP, HEI3090 250 nM) [%]	shift of the EC50 for BzATP (mouse P2RX7; low dose of HEI3090 (250 nM))	cure of tumor bearing mice (LLC; HEI3090 1.5 mg/kg ip day 1-18 combined with anti PD-1 200 μg ip)	memory T cell response (LLC; HEI3090 combined with anti PD-1, re-challenge of cured mice)
O=C(NCc1ccc(Cl)cc1Cl)[C@@H]1CCC(=O)N1C(=O)Nc1ccc(Cl)c(Cl)c1 [HEI2328, (S)—N^2-(2,4-Dichlorobenzyl)-N^1-(3,4-dichlorophenyl)-5-oxopyrrolidine-1,2-dicarboxamide]	61	did not impact channel activity	increase Topro3 entry only in presence of BzATP; also recorded: most active	did induce neither channel activity nor large pore opening	–	–	–	–
O=C(NCc1ccc(Cl)cc1Cl)[C@@H]1CCC(=O)N1C(=O)Nc1ccc(Cl)nc1 [HEI3090, (S)—N^1-(6-Chloropyridin-3-yl)-N^2-(2,4-dichlorobenzyl)-5-oxopyrrolidine-1,2-dicarboxamide]	–	–	–	–	22	shift to the left of the EC50 for BzATP	cured mice bearing tumors	set up a memory T cell response
